According to patent publication US8802597B2, “Herbicidal pyrimidines” (E I du Pont de Nemours and Company, priority 2003, dated 2014):
Where two headings read alike, the source gives them in different places.

Legend:
Type in all cases: in vivo
[1] = system: barnyardgrass (Echinochloa crus-galli); assay: Test A pre/postemergence
Method in brief: (§1)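 Seeds sown in loam–sand blend received a preemergence directed soil spray of test chemical in non-phytotoxic solvent with surfactant; same-formulation postemergence spray given concurrently to plants 2–10 cm tall at 1- to 2-leaf stage. Greenhouse ~ten days, then visual injury rating versus untreated controls, 0 (no effect) to 100 (complete control).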

[2] = system: crabgrass (Digitaria sanguinalis); assay: Test A pre/postemergence
Method in brief: as §1

[3] = system: giant foxtail (Setaria faberi); assay: Test A pre/postemergence
Method in brief: as §1

[4] = system: morningglory (Ipomoea spp.); assay: Test A pre/postemergence
Method in brief: as §1

[5] = system: redroot pigweed (Amaranthus retroflexus); assay: Test A pre/postemergence
Method in brief: as §1

[6] = system: velvetleaf (Abutilon theophrasti); assay: Test A pre/postemergence
Method in brief: as §1

[7] = system: bermudagrass (Cynodon dactylon); assay: Test C pre/postemergence
Method in brief: (§2)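 Rating scale 0–100: 0 means no effect, 100 complete control; taken visually 12 to 14 days post-treatment versus controls. Pre- and postemergence greenhouse applications, postemergence at 1- to 4-leaf stage, non-phytotoxic solvent with surfactant as carrier.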

[8] = system: johnsongrass (Sorghum halepense); assay: Test C pre/postemergence
Method in brief: as §2

[9] = system: lambsquarters (Chenopodium album); assay: Test C pre/postemergence
Method in brief: as §2

[10] = system: soybean (Glycine max); assay: Test C pre/postemergence; conditions: for Plant response rating, Soybean: Preemergence, scale 0 to 100, 0 no effect, 100 complete control
Method in brief: as §2

[11] = system: chickweed (Stellaria media); assay: Test C postemergence
Method in brief: as §2

[12] = Postemergence, 125 g ai/ha, 0 to 100 scale (0 no effect, 100 complete control)
[13] = Postemergence, 500 g ai/ha, 0 to 100 scale (0 no effect, 100 complete control)
[14] = Preemergence, 125 g ai/ha, 0 to 100 scale where 0 is no effect and 100 is complete control, approximately ten days
[15] = Preemergence, 500 g ai/ha, 0 to 100 scale where 0 is no effect and 100 is complete control, approximately ten days
[16] = Preemergence, 31 g ai/ha, scale 0 to 100, 0 no effect, 100 complete control
[17] = Preemergence, 62 g ai/ha, scale 0 to 100, 0 no effect, 100 complete control
[18] = Preemergence, 125 g ai/ha, scale 0 to 100
[19] = Postemergence, 125 g ai/ha, scale 0 to 100 (0 no effect, 100 complete control)

Nc1nc(C2CC2)nc(C(=O)O)c1Cl [Compound 135, 6-amino-5-chloro-2-cyclopropyl-4-pyrimidinecarboxylic acid]
Plant response rating, Barnyardgrass [1, 12]: 75 | Plant response rating, Barnyardgrass [1, 13]: 90 | Plant response rating, Barnyardgrass [1, 14]: 65 | Plant response rating, Barnyardgrass [1, 15]: 90 | Plant response rating, Crabgrass [2, 12]: 65 | Plant response rating, Crabgrass [2, 13]: 65 | Plant response rating, Crabgrass [2, 14]: 75 | Plant response rating, Crabgrass [2, 15]: 95 | Plant response rating, Foxtail, Giant [3, 12]: 75 | Plant response rating, Foxtail, Giant [3, 13]: 80 | Plant response rating, Foxtail, Giant [3, 14]: 30 | Plant response rating, Foxtail, Giant [3, 15]: 85 | Plant response rating, Morningglory [4, 12]: 90 | Plant response rating, Morningglory [4, 13]: 100 | Plant response rating, Morningglory [4, 14]: 95 | Plant response rating, Morningglory [4, 15]: 100 | Plant response rating, Pigweed [5, 12]: 90 | Plant response rating, Pigweed [5, 13]: 95 | Plant response rating, Pigweed [5, 14]: 85 | Plant response rating, Pigweed [5, 15]: 100 | Plant response rating, Velvetleaf [6, 12]: 85 | Plant response rating, Velvetleaf [6, 13]: 100 | Plant response rating, Velvetleaf [6, 14]: 80 | Plant response rating, Velvetleaf [6, 15]: 100 | pest or weed control at 16 g/ha ([7]; Cynodon dactylon, post-emergence, Postemergence, 16 g ai/ha, read-out: Plant response rating (scale of 0 to 100), Bermudagrass): 40% | pest or weed control at 62 g/ha ([7]; Cynodon dactylon, post-emergence, Postemergence, 62 g ai/ha, scale 0 to 100 (0 no effect, 100 complete control), read-out: Bermudagrass plant response rating): 60% | pest or weed control at 125 g/ha ([7]; Cynodon dactylon, post-emergence, Postemergence, 125 g ai/ha, scale 0 to 100 (0 no effect, 100 complete control), read-out: Bermudagrass plant response rating): 75% | pest or weed control at 16 g/ha ([7]; Cynodon dactylon, pre-emergence, Preemergence, 16 g ai/ha, scale 0 to 100, 0 no effect, 100 complete control, read-out: Plant response rating, Bermudagrass): 0% | Plant response rating, Bermudagrass [7, 16]: 0 | Plant response rating, Bermudagrass [7, 17]: 0 | Plant response rating, Bermudagrass [7, 18]: 0 | Plant response rating, Johnsongrass [8, 16]: 0 | Plant response rating, Johnsongrass [8, 17]: 5 | Plant response rating, Johnsongrass [8, 18]: 40 | pest or weed control at 16 g/ha ([8]; Sorghum halepense, post-emergence, Postemergence, 16 g ai/ha, read-out: Plant response rating (scale of 0 to 100), Johnsongrass): 15% | pest or weed control at 31 g/ha ([8]; Sorghum halepense, post-emergence, Postemergence, 31 g ai/ha, read-out: Plant response rating (scale of 0 to 100), Johnsongrass): 35% | pest or weed control at 62 g/ha ([8]; Sorghum halepense, post-emergence, Postemergence, 62 g ai/ha, read-out: Plant response rating (scale of 0 to 100), Johnsongrass): 65% | pest or weed control at 125 g/ha ([8]; Sorghum halepense, post-emergence, Postemergence, 125 g ai/ha, scale 0 to 100 (0 no effect, 100 complete control), read-out: Johnsongrass plant response rating): 70% | pest or weed control at 16 g/ha ([8]; Sorghum halepense, pre-emergence, Preemergence, 16 g ai/ha, scale 0 to 100, 0 no effect, 100 complete control, read-out: Plant response rating, Johnsongrass): 0% | pest or weed control at 16 g/ha ([9]; Chenopodium album, post-emergence, Postemergence, 16 g ai/ha, read-out: Plant response rating (scale of 0 to 100), Lambsquarters): 60% | pest or weed control at 31 g/ha ([9]; Chenopodium album, post-emergence, Postemergence, 31 g ai/ha, read-out: Plant response rating (scale of 0 to 100), Lambsquarters): 90% | pest or weed control at 62 g/ha ([9]; Chenopodium album, post-emergence, Postemergence, 62 g ai/ha, read-out: Plant response rating (scale of 0 to 100), Lambsquarters): 90% | pest or weed control at 125 g/ha ([9]; Chenopodium album, post-emergence, Postemergence, 125 g ai/ha, scale 0 to 100 (0 no effect, 100 complete control), read-out: Lambsquarters plant response rating): 95% | pest or weed control at 16 g/ha ([9]; Chenopodium album, pre-emergence, Preemergence, 16 g ai/ha, scale 0 to 100, 0 no effect, 100 complete control, read-out: Plant response rating, Lambsquarters): 0% | pest or weed control at 62 g/ha ([9]; Chenopodium album, pre-emergence, Preemergence, 62 g ai/ha, scale 0 to 100, 0 no effect, 100 complete control, read-out: Plant response rating, Lambsquarters): 70% | Plant response rating, Lambsquarters [9, 16]: 70 | Plant response rating, Lambsquarters [9, 18]: 90 | plant injury at 16 g/ha ([10]; Glycine max, post-emergence, Postemergence, 16 g ai/ha, read-out: Plant response rating (scale of 0 to 100), Soybean): 100% | plant injury at 62 g/ha ([10]; Glycine max, post-emergence, Postemergence, 62 g ai/ha, read-out: Plant response rating (scale of 0 to 100), Soybean): 100% | plant injury at 125 g/ha ([10]; Glycine max, post-emergence, Postemergence, 125 g ai/ha, scale 0 to 100 (0 no effect, 100 complete control), read-out: Soybean plant response rating): 100% | Plant response rating, Soybean ([10]; 16 g ai/ha): 85 | Plant response rating, Soybean ([10]; 31 g ai/ha): 95 | Plant response rating, Soybean ([10]; 62 g ai/ha): 95 | pest or weed control at 16 g/ha ([11]; Stellaria media, post-emergence, 16 g ai/ha, read-out: Plant response rating (scale of 0 to 100), Chickweed): 0% | pest or weed control at 31 g/ha ([11]; Stellaria media, post-emergence, 31 g ai/ha, read-out: Plant response rating (scale of 0 to 100), Chickweed): 15% | pest or weed control at 62 g/ha ([11]; Stellaria media, post-emergence, 62 g ai/ha, read-out: Plant response rating (scale of 0 to 100), Chickweed): 25% | pest or weed control at 125 g/ha ([11]; Stellaria media, post-emergence, 125 g ai/ha, scale 0 to 100 (0 no effect, 100 complete control), read-out: Chickweed plant response rating): 85%

Nc1nc(-c2ccc(Br)cc2)nc(C(=O)O)c1Br [Compound 136]
Plant response rating, Barnyardgrass [1, 12]: 50 | Plant response rating, Barnyardgrass [1, 13]: 80 | Plant response rating, Barnyardgrass [1, 14]: 5 | Plant response rating, Barnyardgrass [1, 15]: 40 | Plant response rating, Crabgrass [2, 12]: 35 | Plant response rating, Crabgrass [2, 13]: 70 | Plant response rating, Crabgrass [2, 14]: 20 | Plant response rating, Crabgrass [2, 15]: 60 | Plant response rating, Foxtail, Giant [3, 12]: 75 | Plant response rating, Foxtail, Giant [3, 13]: 80 | Plant response rating, Foxtail, Giant [3, 14]: 10 | Plant response rating, Foxtail, Giant [3, 15]: 60 | Plant response rating, Morningglory [4, 12]: 70 | Plant response rating, Morningglory [4, 13]: 80 | Plant response rating, Morningglory [4, 14]: 10 | Plant response rating, Morningglory [4, 15]: 20 | Plant response rating, Pigweed [5, 12]: 85 | Plant response rating, Pigweed [5, 13]: 100 | Plant response rating, Pigweed [5, 14]: 45 | Plant response rating, Pigweed [5, 15]: 100 | Plant response rating, Velvetleaf [6, 12]: 85 | Plant response rating, Velvetleaf [6, 13]: 95 | Plant response rating, Velvetleaf [6, 14]: 30 | Plant response rating, Velvetleaf [6, 15]: 75 | Plant response rating (scale of 0 to 100), Bermudagrass ([7]; Postemergence, 16 g ai/ha): 75 | Plant response rating (scale of 0 to 100), Bermudagrass ([7]; Postemergence, 31 g ai/ha): 80 | Bermudagrass plant response rating ([7]; Postemergence, 62 g ai/ha, scale 0 to 100 (0 no effect, 100 complete control)): 80 | Bermudagrass plant response rating [7, 19]: 85 | Plant response rating (scale of 0 to 100), Johnsongrass ([8]; Postemergence, 16 g ai/ha): 60 | Plant response rating (scale of 0 to 100), Johnsongrass ([8]; Postemergence, 31 g ai/ha): 85 | Plant response rating (scale of 0 to 100), Johnsongrass ([8]; Postemergence, 62 g ai/ha): 85 | Johnsongrass plant response rating [8, 19]: 95 | Plant response rating (scale of 0 to 100), Lambsquarters ([9]; Postemergence, 16 g ai/ha): 95 | Plant response rating (scale of 0 to 100), Lambsquarters ([9]; Postemergence, 31 g ai/ha): 95 | Plant response rating (scale of 0 to 100), Lambsquarters ([9]; Postemergence, 62 g ai/ha): 95 | Lambsquarters plant response rating [9, 19]: 95 | Plant response rating (scale of 0 to 100), Soybean ([10]; Postemergence, 16 g ai/ha): 95 | Plant response rating (scale of 0 to 100), Soybean ([10]; Postemergence, 31 g ai/ha): 100 | Plant response rating (scale of 0 to 100), Soybean ([10]; Postemergence, 62 g ai/ha): 100 | Soybean plant response rating [10, 19]: 100 | Plant response rating (scale of 0 to 100), Chickweed ([11]; 16 g ai/ha): 45 | Plant response rating (scale of 0 to 100), Chickweed ([11]; 31 g ai/ha): 50 | Plant response rating (scale of 0 to 100), Chickweed ([11]; 62 g ai/ha): 50 | Chickweed plant response rating ([11]; 125 g ai/ha, scale 0 to 100 (0 no effect, 100 complete control)): 50
